Here are results for 24 compounds from publication PMC6264139, “Schiff Bases of Indoline-2,3-dione: Potential Novel Inhibitors of Mycobacterium Tuberculosis (Mtb) DNA Gyrase ^†” (Molecules, 2011).

pIC50: −log10 of the molar value. Values joined by “and” are separate entries in the source; they are usually repeats but may differ in a detail not shown here. Equal entries are not always repeated.

Sequence of Mtb DNA gyrase (P9WG45 whole entry): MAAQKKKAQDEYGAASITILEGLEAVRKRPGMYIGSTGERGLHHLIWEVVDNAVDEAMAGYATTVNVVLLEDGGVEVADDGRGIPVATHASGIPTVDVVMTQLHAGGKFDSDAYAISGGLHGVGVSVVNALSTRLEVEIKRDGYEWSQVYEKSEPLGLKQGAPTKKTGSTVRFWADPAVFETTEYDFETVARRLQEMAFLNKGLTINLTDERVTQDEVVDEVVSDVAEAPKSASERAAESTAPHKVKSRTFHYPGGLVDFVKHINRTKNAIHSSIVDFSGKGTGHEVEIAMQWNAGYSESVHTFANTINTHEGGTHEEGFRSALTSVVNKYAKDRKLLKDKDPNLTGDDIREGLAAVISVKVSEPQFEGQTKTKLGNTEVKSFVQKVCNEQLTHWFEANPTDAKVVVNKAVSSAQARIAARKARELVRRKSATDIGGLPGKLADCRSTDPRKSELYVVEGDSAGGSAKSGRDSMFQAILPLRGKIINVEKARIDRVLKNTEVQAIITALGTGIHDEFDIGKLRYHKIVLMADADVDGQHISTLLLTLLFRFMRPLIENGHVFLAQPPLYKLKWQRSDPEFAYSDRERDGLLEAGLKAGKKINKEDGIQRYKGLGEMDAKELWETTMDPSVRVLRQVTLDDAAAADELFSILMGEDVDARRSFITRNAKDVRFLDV
Sequence of Mtb DNA gyrase (P9WG47 whole entry): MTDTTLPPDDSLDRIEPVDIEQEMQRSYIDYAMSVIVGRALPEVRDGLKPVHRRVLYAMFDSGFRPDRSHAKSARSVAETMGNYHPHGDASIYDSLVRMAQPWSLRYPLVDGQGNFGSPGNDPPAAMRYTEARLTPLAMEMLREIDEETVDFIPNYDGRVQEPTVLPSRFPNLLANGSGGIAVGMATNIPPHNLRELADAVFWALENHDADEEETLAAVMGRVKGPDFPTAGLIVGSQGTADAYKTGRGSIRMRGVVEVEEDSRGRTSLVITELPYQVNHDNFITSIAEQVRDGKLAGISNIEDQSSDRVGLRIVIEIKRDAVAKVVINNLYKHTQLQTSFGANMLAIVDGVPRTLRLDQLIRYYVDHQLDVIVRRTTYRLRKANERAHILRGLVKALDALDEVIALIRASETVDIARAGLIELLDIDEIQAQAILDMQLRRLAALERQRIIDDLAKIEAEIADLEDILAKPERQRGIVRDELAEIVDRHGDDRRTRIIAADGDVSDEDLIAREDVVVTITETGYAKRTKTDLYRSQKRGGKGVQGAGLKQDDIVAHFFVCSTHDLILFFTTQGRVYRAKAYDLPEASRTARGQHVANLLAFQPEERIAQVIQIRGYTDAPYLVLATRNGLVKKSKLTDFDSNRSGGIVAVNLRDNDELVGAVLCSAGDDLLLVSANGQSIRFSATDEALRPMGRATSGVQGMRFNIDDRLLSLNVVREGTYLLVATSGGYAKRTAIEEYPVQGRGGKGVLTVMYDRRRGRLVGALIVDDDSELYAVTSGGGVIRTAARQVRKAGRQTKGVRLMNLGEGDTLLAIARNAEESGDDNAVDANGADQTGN

One experiment concerns the target Mtb DNA gyrase (Mycobacterium tuberculosis, UniProt P9WG45+P9WG47). Briefly: Mtb DNA gyrase supercoiling inhibition assay. The experiment is classed as biochemical, Mycobacterium tuberculosis strain H37RV. As to conditions: Mtb wt gyrase IC50, supercoiling of relaxed pBR322 DNA, 60 minutes at 37 °C, inhibitor 1.56 to 200 µM. Here is the method: Two-fold increases in inhibitor concentrations ranging from 1.56 to 200 µM were added to pBR322 relaxed DNA in the presence of Mtb DNA gyrase enzyme. Control lanes are: Lane 1, DNA with no enzyme or inhibitor and Lane 2, DNA with enzyme but no inhibitor. IC50 values were calculated by measurement of fluorescence intensity after ethidium bromide staining of the supercoiling band at the bottom of the lanes. […] (b) IC50 curves of supercoiling (SC) fluorescence data. DNA fluorescence was quantitated with an Alpha Imager 2200 Analysis System (Cell Biosciences, Santa Clara, CA, USA) and IC50 values were determined by nonlinear regression analysis with Graphpad Prism software (Graphpad Software, Inc., San Diego, CA, USA). IDV = Integrated Density Value.
The isatin Schiff bases synthesized and characterized in this report were tested for their ability to inhibit supercoiling activity of DNA gyrase. DNA gyrase is the only enzyme known so far having the ability to introduce negative supercoils in DNA. In all the species of mycobacteria, including Mtb, DNA gyrase is the sole type II topoisomerase carrying out the reactions of both gyrase and topoisomerase IV. Since the DNA gyrase from Mtb and M. smegmatis are highly similar at a functional as well as a protein sequence level and antigenic properties, Mtb strain H37RV DNA gyrase has been used for carrying out the supercoiling assays.
Relaxed pBR322 DNA (0.1 µg) was incubated with 1 unit of Mtb DNA gyrase for 60 minutes at 37 °C in the following buffer: 2 mM ATP, 4 mM DTT, 25 mM KCl, 6 mM magnesium acetate, 50 µg/mL of molecular grade BSA, 0.1 mg/mL E. coli tRNA, 2mM spermidine, 100 mM potassium glutamate and 40 mM Tris-HCL pH 7.5 (20 µL). Reactions are stopped with 0.5% SDS, 6 mM EDTA, 5.35% glycerol, and 0.013% bromophenol blue (10 µL). Reactions are then loaded onto a 1% agarose/ TBE gel to separate supercoiled and relaxed DNA forms and run overnight at 22 volts. Bands are visualized by staining with 0.5 µg/mL EtBr in 1 × TBE for 40 minutes then washing with dH2O for 120 minutes. Quantification is done on the AlphaImager 2200 system. DNA gyrase subunits, GyrA and GyrB, were isolated from Mtb strain H37RV genomic DNA, expressed and purified in pET overexpression constructs in E coli. One unit of DNA supercoiling activity is defined as the amount that converts ~50% relaxed DNA, in the standard assay, to supercoiled DNA in 60 minutes at 37 °C.
On to `O=C1Nc2ccccc2/C1=N/NC(=O)c1ccncc1` [Compound 3, (Z)-N'-(2-Oxoindolin-3-ylidene)isonicotinohydrazide], for which the negative logarithm of the IC50 (pIC50) – broadly, the negative decadic logarithm of the IC50, by convention in mol/L – was below 3.70.
On the same count and under the same terms, with `O=C1Nc2ccc(Cl)cc2/C1=N/NC(=O)c1ccncc1` [Compound 4, (Z)-N'-(5-Chloro-2-oxoindolin-3-ylidene)isonicotinohydrazide] the figure was below 3.70; with `O=C1Nc2ccc(F)cc2/C1=N/NC(=O)c1ccncc1` [Compound 5, (Z)-N'-(5-Fluoro-2-oxoindolin-3-ylidene)isonicotinohydrazide], below 3.70.
On the same count and under the same terms, the result for `Cc1ccc2c(c1)/C(=N/NC(=O)c1ccncc1)C(=O)N2` [Compound 6, (Z)-N'-(5-Methyl-2-oxoindolin-3-ylidene)isonicotinohydrazide] reads below 3.70; that for `O=C1Nc2ccc(OC(F)(F)F)cc2/C1=N/NC(=O)c1ccncc1` [Compound 7, (Z)-N'-(2-Oxo-5-(trifluoromethoxy)indolin-3-ylidene)isonicotinohydrazide], below 3.70.
Regarding `O=C1Nc2ccc([N+](=O)[O-])cc2/C1=N/NC(=O)c1ccncc1` [Compound 8, (Z)-N'-(5-Nitro-2-oxoindolin-3-ylidene)isonicotinohydrazide], the negative logarithm of the IC50 (pIC50) was 3.80.
In the case of `O=C(N/N=C1\C(=O)N(c2ccccc2)c2ccccc21)c1ccncc1` [Compound 9, (Z)-N'-(2-Oxo-1-phenylindolin-3-ylidene)isonicotinohydrazide], the negative logarithm of the IC50 (pIC50) was below 3.70.
On the same count and under the same terms, the result for `O=C(N/N=C1\C(=O)N(Cc2ccccc2)c2ccccc21)c1ccncc1` [Compound 10, (Z)-N'-(1-Benzyl-2-oxoindolin-3-ylidene)isonicotinohydrazide] reads below 3.70.
`O=C(N/N=C1\C(=O)N(Cc2ccccc2)c2ccc(Cl)cc21)c1ccncc1` [Compound 11, (Z)-N'-(1-Benzyl-5-chloro-2-oxoindolin-3-ylidene)isonicotinohydrazide] had a pIC50 below 3.70.
`O=C(N/N=C1\C(=O)N(Cc2ccccc2)c2ccc(F)cc21)c1ccncc1` [Compound 12, (Z)-N'-(1-Benzyl-5-fluoro-2-oxoindolin-3-ylidene)isonicotinohydrazide] gave a negative logarithm of the IC50 (pIC50) below 3.70.
The same measure, in the same setting: the result for `Cc1ccc2c(c1)/C(=N/NC(=O)c1ccncc1)C(=O)N2Cc1ccccc1` [Compound 13, (Z)-N'-(1-Benzyl-5-methyl-2-oxoindolin-3-ylidene)isonicotinohydrazide] reads below 3.70.
Same read-out and setting: the result for `O=C1Nc2ccccc2/C1=N/NC(=O)c1cccnc1` [Compound 14, (Z)-N'-(2-Oxoindolin-3-ylidene)nicotinohydrazide] reads below 3.70; that for `O=C1Nc2ccc(F)cc2/C1=N/NC(=O)c1ccco1` [Compound 15, (Z)-N'-(5-Fluoro-2-oxoindolin-3-ylidene)furan-2-carbhydrazide], below 3.70.
Compound `O=C1Nc2ccccc2/C1=N/NC(=O)c1ccc([N+](=O)[O-])o1` [Compound 16, (Z)-5-Nitro-N'-(2-Oxoindolin-3-ylidene)furan-2-carbohydrazide] had a pIC50 below 3.70.
On the same count and under the same terms, the result for `O=C1Nc2ccc(Cl)cc2/C1=N/NC(=O)c1cc2ccccc2o1` [Compound 17, (Z)-N'-(5-Chloro-2-oxoindolin-3-ylidene)benzofuran-2-carbohydrazide] reads < 3.70 and 3.53; that for `Cc1ccc2c(c1)/C(=N/NC(=O)c1cc3ccccc3o1)C(=O)N2` [Compound 18, (Z)-N'-(5-Methyl-2-oxoindolin-3-ylidene)benzofuran-2-carbohydrazide], ~4.30 and 4.25.
The same measure, in the same setting: the result for `O=C1Nc2ccc([N+](=O)[O-])cc2/C1=N/NC(=O)c1cc2ccccc2o1` [Compound 19, (Z)-N'-(5-Nitro-2-oxoindolin-3-ylidene)benzofuran-2-carbohydrazide] reads 4.05; that for `O=C(N/N=C1\C(=O)N(c2ccccc2)c2ccccc21)c1cc2ccccc2o1` [Compound 20, (Z)-N'-(2-Oxo-1-phenylindolin-3-ylidene)benzofuran-2-carbohydrazide], below 3.70.
Regarding `O=C1Nc2ccc(F)cc2/C1=N/NC(=O)c1cc2cc([N+](=O)[O-])ccc2o1` [Compound 21, (Z)-N'-(5-Fluoro-2-oxoindolin-3-ylidene)-5-nitrobenzofuran-2-carbhydrazide], the pIC50 is below 3.70.
On to `Cc1cccc(Nc2ccccc2C(=O)N/N=C2\C(=O)N(Cc3ccccc3)c3ccccc32)c1C` [Compound 23, (Z)-N'-(1-Benzyl-2-oxoindolin-3-ylidene)-2-(2,3-dimethylphenylamino)benzohydrazide], for which the negative-log IC50 (pIC50) is below 3.70.
In the case of `Cc1ccc2c(c1)/C(=N/NC(=O)c1ccccc1Nc1c(Cl)ccc(C)c1Cl)C(=O)N2` [Compound 24, (Z)-2-(2,6-Dichloro-3-methylphenylamino)-N'-(5-methyl-2-oxoindolin-3-ylidene)-benzohydrazide], the pIC50 was below 3.70.
Same read-out and setting: the result for `O=C1Nc2ccc(OC(F)(F)F)cc2/C1=N/NC(=O)c1ccccc1Nc1cccc(C(F)(F)F)c1` [Compound 25, (Z)-N'-(2-Oxo-5-(trifluoromethoxy)indolin-3-ylidene)-2-(3-(trifluoromethyl)phenylamino)-benzo-hydrazide] reads below 3.70; that for `CCn1cc(C(=O)N/N=C2\C(=O)Nc3ccc(F)cc32)c(=O)c2ccc(C)nc21` [Compound 26, (Z)-1-Ethyl-N'-(5-fluoro-2-oxoindolin-3-ylidene)-7-methyl-4-oxo-1,4-dihydro-1,8-naphthyridine-3-carbohydrazide], below 3.70.

Still in this experiment, the particulars now being: supercoiling of relaxed pBR322 DNA, 60 minutes at 37 °C, inhibitor 1.56 to 200 µM; read-out: Mtb wt gyrase IC50.
On to `O=C1/C(=N\NC(=O)C23CC4CC(CC(C4)C2)C3)c2ccccc2N1c1ccccc1` [Compound 22, (Z)-N'-(2-oxo-1-phenylindolin-3-ylidene)adamantane-1-carbohydrazide], for which the negative-log IC50 (pIC50) is below 3.70.
